Columns and labels:
[1] = test system: primary human neutrophils; assay: Generation of reactive oxygen species by fMLP-activated neutrophils (luminol-enhanced chemiluminescence); format: cell-based; details: Neutrophil, read-out: IC50 RANGE (μM) <1, ROS production, X marks this range
Description: Neutrophil activation can be measured by quantitation of ROS generated in vitro. Measurement of ROS allows specific quantitation of a pro-inflammatory species and is also a general measure of neutrophil activation. The most sensitive method for measuring the production of ROS by neutrophils is luminol-enhanced chemiluminescence. […] The assay system used to evaluate the ability of compounds to inhibit ROS generation in neutrophils is indicative of anti-inflammatory activity that may be efficacious in disease states including but not limited to rheumatoid arthritis and inflammatory bowel disease.
Freshly isolated primary human neutrophils (5×10^6 cells/mL) were incubated with the required concentrations of compound or vehicle for 30 minutes at 37° C. in HBSS buffer (pH 7.4) containing Ca^2+. 100 nM wortmannin was used as a positive control. Aliquots of each sample were transferred to a microtitre plate to which luminol (1 μM); obtained from Sigma; Catalogue No. A8511 is added. Activation of the neutrophils was immediately initiated by addition of (1 μM) fMLP; obtained from Sigma, Catalogue No. F3506. Light output from each well was recorded for 30 minutes in a microplate luminometer. Total light output (integral of the time-course) was determined for each well. Inhibitory activities of test drugs against neutrophil ROS generation is expressed as percentage activity relative to a no drug control (100% activation or generation of ROS) containing 0.25% DMSO. Concentration of test compound required to inhibit the generation of ROS to 50% of control values (IC50's) were determined from concentration-response curves by non-linear regression analysis.

[2] = target: T1, cAMP phosphodiesterase 3 from human platelets (Homo sapiens, UniProt Q14432); assay: Inhibition of cAMP phosphodiesterase 3 from human platelets; format: biochemical; details: PDE3, platelet cell extract; X marks this range; read-out: IC50 range (μM) 10-100
T1 construct: from tissue; host or cells: human platelets, cytoplasmic extract
T1 sequence (Q14432 whole entry): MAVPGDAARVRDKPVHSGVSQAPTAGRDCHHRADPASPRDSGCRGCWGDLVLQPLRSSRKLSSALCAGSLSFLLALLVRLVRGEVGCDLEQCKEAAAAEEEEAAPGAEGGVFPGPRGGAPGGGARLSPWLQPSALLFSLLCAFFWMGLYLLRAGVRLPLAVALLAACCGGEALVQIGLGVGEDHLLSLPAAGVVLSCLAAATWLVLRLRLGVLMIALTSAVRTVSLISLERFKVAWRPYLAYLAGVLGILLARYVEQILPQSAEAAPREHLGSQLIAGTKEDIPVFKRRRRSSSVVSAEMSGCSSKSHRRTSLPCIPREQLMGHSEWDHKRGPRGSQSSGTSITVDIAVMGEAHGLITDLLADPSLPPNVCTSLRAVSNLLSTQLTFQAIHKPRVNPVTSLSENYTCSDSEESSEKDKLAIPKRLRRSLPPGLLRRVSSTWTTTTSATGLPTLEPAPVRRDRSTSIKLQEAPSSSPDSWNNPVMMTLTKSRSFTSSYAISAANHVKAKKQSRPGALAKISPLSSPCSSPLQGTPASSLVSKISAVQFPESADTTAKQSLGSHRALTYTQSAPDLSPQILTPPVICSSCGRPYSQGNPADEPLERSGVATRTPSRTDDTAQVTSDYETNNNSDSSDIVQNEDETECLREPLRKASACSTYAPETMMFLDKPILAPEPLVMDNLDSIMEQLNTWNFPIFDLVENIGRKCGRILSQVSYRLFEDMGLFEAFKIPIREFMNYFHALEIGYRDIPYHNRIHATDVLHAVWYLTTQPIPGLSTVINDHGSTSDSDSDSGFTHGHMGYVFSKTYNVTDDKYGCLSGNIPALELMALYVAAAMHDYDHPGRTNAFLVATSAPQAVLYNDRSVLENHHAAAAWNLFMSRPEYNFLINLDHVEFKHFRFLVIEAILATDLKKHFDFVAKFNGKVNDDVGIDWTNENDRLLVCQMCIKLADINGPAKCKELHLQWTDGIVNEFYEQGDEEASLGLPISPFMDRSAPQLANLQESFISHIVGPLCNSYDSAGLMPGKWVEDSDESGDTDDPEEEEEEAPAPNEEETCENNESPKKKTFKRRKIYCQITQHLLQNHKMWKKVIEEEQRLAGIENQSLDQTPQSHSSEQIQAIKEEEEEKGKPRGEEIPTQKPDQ
Description: Compound 12 was screened for activity against 5 of the major classes of mammalian cyclic nucleotide phosphodiesterase (termed PDE 1 through 5). PDE's 1 through 4 utilize cAMP as substrate while PDE 5 uses cGMP. The broad specificity PDE inhibitor 3-isobutyl-1-methylxanthine (IBMX; Sigma; Catalogue No. 17018)) was used as a positive control in all assays. PDE's for the various assays were partially purified from the following cells/tissues; PDE 1 (bovine heart), PDE 2 (human platelets), PDE 3 (human platelets), PDE 4 (human promonocytic U937 cells) and PDE 5 (human platelets).
Platelet cell extracts were prepared as described above for the U937 cells. The PDE3 assay was performed using platelet cell extract as described above for the PDE 4 assay. Platelets contain PDE 2, 3 and 5. However PDE2 and 5 preferentially utilize cGMP, so in an assay with cAMP as a substrate they are not detected.

[3] = test system: Resiniferitoxin-induced mouse ear edema; assay: Resiniferitoxin-induced mouse ear edema; format: in vivo; details: Mus musculus; topical administration, 50 μg/ear, RTX 0.1 μg/ear, CD1 mice
Description: One of the primary characteristics of inflammation is an increase in vascular dilation and permeability leading to the extravasation of, and collection of fluids in, the interstitium, resulting in redness and swelling. Rheumatoid arthritis in particular is characterized by pronounced edema of affected joints resulting in significant pain and stiffness. The mouse ear inflammation model is a standard in vivo assay for inflammation that is based on an increase in ear weight which is attributable to edema induced by inflammatory mediators. RTX (resiniferitoxin; Sigma; Catalogue No. R 8756)) is a diterpene isolated from the plant Euphorbia poisonii and is an ultrapotent analog of capsaicin. RTX acts by selectively stimulating nociceptive and thermal-sensitive nerve ending in tissue, eliciting neurogenic edema. Compounds of the present invention, whether administered topically, intraperitoneally or orally, inhibited development of edema induced by topical application of RTX.
Mice (CD1, Charles River Laboratories) were separated into groups (n—5−8) and tagged. Control mice had RTX (0.1 μg/ear) applied topically to the inner and outer sides of the left ear and vehicle applied to the right ear as a control. For topical administration, experimental/treatment mice received RTX+test compound solution (50 μg/ear) on the left ear and acetone on the right ear. For intraperitoneal (i.p.) administration, 100 mg/kg test compound dissolved in 100 μL PEG 200:saline (1:1) was injected followed by a 30 minute waiting period then the standard 30 minute RTX edema induction. For oral (p.o.) administration, 10 mg/kg test compound in 100 μL PEG-200 was given to animals, then edema induced using 0.1 μg/ear RTX after a 1.5 hour waiting period. After edema induction, mice were sacrificed, and a standard disc of ear tissue was removed. Each disk of tissue was immediately weighed to the nearest 1/10th of a mg. Data were analyzed by taking the difference of each left ear from the right ear, calculating the mean+/−SEM. Statistical significance was tested by 2-sample t-test on the left/right ear weight differences of the control group vs. the experimental group.

[4] = test system: primary human neutrophils; assay: fMLP-induced human neutrophil chemotaxis; format: cell-based; details: fMLP-induced chemotaxis, X marks this range, read-out: IC50 RANGE (μM) 10-100
Procedure: Chemotaxis buffer containing the chemoattractant fMLP (10 μM) was added to each well of a chemotaxis plate and a filter was inserted ensuring contact between the filter and the chemotaxis buffer in the well. A submaximal concentration of chemoattractant was used which had been determined in previous experiments. […] Freshly isolated neutrophils (1×10^6) were incubated with vehicle (0.125% DMSO)±test compound for 1 hr at 37° C. Treatment and control cell suspensions were then gently resuspended and 20 μL of cells was added to the top side of the filter on each well. The plate was incubated for 1.5 hours at 37° C. under 5% CO2. Cells were then removed from the top side of the filter by aspiration and the entire plate was centrifuged. The filter was removed and known concentrations of cells were added to unused wells to prepare a standard curve. XTT (Sigma; Catalogue No. X 4251)/PMS (Sigma; Catalogue No. P 7626) solution prepared in buffer was added to each well and the cells were further incubated 1-2 hours and measured for absorbance at 450 nm. Absorbance values were converted to cell numbers using the standard curve. IC50 values are averages from at least three separate experiments with triplicate determinations.

[5] = test system: High Affinity Rolipram Binding Site of PDE4 in Mouse Brain; assay: Displacement of [3H]-rolipram from its high affinity binding site (HARBS); details: ratio of IC50 for PDE4 catalytic activity to concentration displacing 50% of rolipram from HARBS
Procedure: Suspension was centrifuged twice at 30,000×G at 4° C. and the supernatant discarded. The pellet was resuspended in buffer, and adjusted to a protein concentration of 0.5 mg/mL. Drugs to be tested were dissolved in DMSO and pipetted in triplicate into a 96 well microplate at concentrations ranging from 1 to 30,000 nM. […] The plate was incubated at 4° C. for 1 hour. Contents of the plate were aspirated through a Whatman GF/C filterplate, and rinsed with 4×200 μL ice-cold buffer. […] Triplicate determinations were performed at each concentration.

[6] = test system: cAMP response element luciferase activity in human U937 monocytic cells; assay: Potentiation of forskolin-induced CRE-luciferase activity in U937 cells; format: cell-based; details: U-937, U937 cells co-incubated with 10 μM forskolin, 4 hours, X marks this range, read-out: EC50 range (μM) 1-25
Procedure: Compounds of the present invention were thereby shown to provide potentiated luciferase expression in U937 cells treated with the adenylyl cyclase activator forskolin.
Human pro-monocytic U937 cells were maintained in RPMI medium containing 10% FCS and 2 mM […]. U937 cells were transiently transfected as described in Biotechniques Vol. 17(6):1058, 1994. Briefly, cells were grown in medium containing serum to a density of 5×10^6 cells/mL and then resuspended in media containing serum at a density of approximately 1×10^7 cells/mL. 400 μL of cells were transferred into the electroporation cuvette containing 10 μg of the reporter vector (PCRE-luc) in a volume of 40 μL H2O. Reporter vector DNA was prepared from DH5α E. coli using the DNA […] free kit (Qiagen) as per manufacturers instructions. U937 cells were clectroporated at room temperature using a BIORAD electroporator. Capacitance was set to 1050 μF and voltage was 280V. The time constant was noted after each electroporation. Cells were then diluted in 4 mL of media and serum and 200 μL of cells were plated per well. Cells were allowed to recover for 16-18 hours. Cells were then treated with a test compound or vehicle in the presence or absence of 10 μM forskolin for 4 hours at 37° C.
The luciferase assay was performed as per manufacturers instructions (Tropix). Briefly, cells were centrifuged for 4 minutes at 1200 rpm and media supernatant was removed. Cell pellets were lysed in 15 μL Lysis buffer (Tropix). Luciferase assay was performed using 10 μL of cell lysate with 10 μL of buffer A and 25 μL buffer B. Luciferase activity was obtained using a luminometer with a 5-second delay followed by a read time of 10 seconds.

[7] = test system: K562 chronic myelogenous leukemia cells; assay: Anti-proliferative activity in K562 cells (3H-thymidine uptake); format: cell-based, human
Procedure: 90 μL K562 cells (human chronic myelogenous leukemia cells) were seeded into sterile 96-well assay plates at a density of 1×10^5 cells/mL in RPMI 1640 supplemented with 10% FBS/2 mM L-glutamine. Samples to be tested were prepared in a sterile 96-well assay plate at 10×the final concentration desired. All sample dilutions contained equal amounts of DMSO to compensate for the % DMSO in the highest sample concentration used. Nine concentrations of test compound were examined for effects on growth up to a maximal concentration of 100 μM. 10 μL of the samples and controls (DMSO/normal growth control) were added to the aliquoted cells. The cells were incubated at 37° C./5% CO2 for 48 hours. Following 48 hour incubation, 20 μL of 3H-thymidine was added to each well for a final concentration of 1 μCi/mL. The cells were then incubated at 37° C./5% CO2 for 4 to 6 hours. Following 4-6 hour thymidine pulse, plates were wrapped in plastic and frozen in a −20° C. frost-free freezer overnight. Cells were harvested and ^3H-thymidine counts determined. In order to distinguish between cytotoxicity and cytostatic activity, growth curves were prepared where the average CPM value of the seeding density of cells was plotted on the same curve as the average CPM value for the maximum proliferation attained after 48 hours (DMSO growth control cells). The cells were diluted 1:2 for a concentration range of 7.8×10^3 cells/mL to 2×10^6 cells/mL. 90 μL of each cell dilution was seeded in sterile 96-well assay plated and allowed to equilibrate for approximately 4 hours at 37° C./5% CO2 prior to ^3H-thymidine pulse. The data in Table 15 was obtained as described above, and more specifically, K562 cells were seeded into 96-well plates at 1×10^5 cells/mL in RPMI 1640 supplemented with 10% FBS/2 mM L-glutamine. Various concentrations of test compound or vehicle (DMSO) was added and the cells were incubated at 37° C./5 CO2 for 48 hours. The cells were then pulsed at 37° C./5% CO2 for 4 to 6 hours with 1 μCi/mL ^3H-thymidine. Radioactivity incorporated into DNA was determined after harvesting onto glass fiber filters and scintillation counting.

With `COc1cc(C[C@H]2C[C@@H](c3ccc(OC)c(OC)c3)COC2=O)ccc1O` [Compound 29] the IC50 [1] was under 1 µM, the IC50 [2] was 10 to 100 µM and the inhibition in vivo at 50 µg/ear [3] was 76%. The IC50 [4] was 10 to 100 µM, the “PDE4:HARBS” value [5] was under 1 and the EC50 [6] was 1 to 25 µM.

For `COc1ccc([C@H]2COC(=O)C(Cc3ccc(O)c(O)c3)C2)cc1OC1CCCC1` (some centres unmarked) [Compound 179], the “effect on proliferative ability / cell cycle of K-562 cells” value [7] was “cell cycle arrest” and the “PDE4:HARBS” value [5] was under 1.

From US20030186943A1, “Substituted gamma-phenyl-delta-lactams and uses related thereto” (Inflazyme Pharmaceuticals Ltd., priority 1998, published 2003)
